Laboratory results taken from publication PMC6143625, “A high throughput screen for next-generation leads targeting malaria parasite transmission” (Nature Communications, 2018).
Like-named read-outs stand apart in the source and are kept apart here.

Tests used:
[1] = system: P. falciparum 3D7 asexual blood stages; assay: Whole-cell time extended asexual growth assay (pLDH); type: cell-based; conditions: Plasmodium falciparum; for inhibition at 2 µM: primary screen, read-out: %Inh Asex stages @2uM
Experimental: Asexual activity was assayed via Plasmodium lactate dehydrogenase activity (pLDH), a surrogate of asexual parasite growth. […] 2 µM artesunate and DMSO were used as the positive and negative controls, respectively. […] After plate mixing, NBT reduction was measured by absorbance at 650 nm using Envision (Perkin Elmer).

[2] = system: P. falciparum male gamete formation; assay: Pf DGFA add-in format, male readout; type: cell-based, Plasmodium falciparum; conditions: for IC50: Plasmodium falciparum, 0h preincubation/add-in
Experimental: (§1) In profiling mode, the Pf DGFA was performed in 96-well plates[23] in wash-out and add-in formats to aid manual manipulation steps. In the wash-out format, gametocytes were incubated for 24 h with test compounds in round-bottomed 96 well plates and then culture medium replaced three times over 6 h, to remove as much of the compound as possible from the well. […] In add-in format, gametocytes were added directly to flat-bottomed 96-well plates containing test compounds, ookinete medium and anti-Pfs25.

[3] = system: P. falciparum female gamete formation; assay: Pf DGFA add-in format, female readout; type: cell-based; conditions: Plasmodium falciparum; 0h preincubation/add-in
Experimental: as §1

[4] = system: P. berghei strain CTRPpGFP early mosquito stage (ookinete) development; assay: P. berghei ookinete development assay (Pb ODA); type: cell-based, Plasmodium berghei; conditions: for IC50: Plasmodium berghei, 24h incubation
Experimental: All mouse procedures were performed in accordance with the UK Animals (Scientific Procedures) Act (PPL 70/7185) and approved by the Imperial College Animal Welfare and Ethical Review Body (AWERB). The ability of test compounds to inhibit P. berghei early mosquito stage development was tested in the Ookinete Development Assay[37] with a few exceptions. Anaesthetised 6- to 8-week-old female Tucks Ordinary (TO) mice infected with P. berghei strain CTRPpGFP[38] were rapidly exsanguinated by cardiac puncture and 500 µl of blood diluted in 25 ml of ookinete medium supplemented with 20% foetal bovine serum. Immediately the blood/medium mixture was dispensed by multichannel pipette into 384 well plates containing pre-plated test compounds. 10 µM cycloheximide and DMSO were used as the positive and negative controls, respectively. Plates were stored in the dark in a humidified incubator at 18 °C for 24 h. Ookinete production was imaged by fluorescence microscopy of GFP expression under the ookinete-specific CTRP promoter using a Nikon Ti-E widefield microscope and ×10 objective. Ookinete production was quantified using ICY and percentage inhibition calculated as above with reference to positive and negative controls.

[5] = system: P. berghei-ANKA-GFP-Luc-SMCON sporozoites in HepG2-A16-CD81EGFP cells; assay: P. berghei liver stage assay (luciferase sporozoite HepG2 invasion); type: cell-based; conditions: Plasmodium berghei
Experimental: Compound inhibition of P. berghei sporozoite liver infection was assessed in a high-throughput luciferase assay. 1536-well plates (789173-F, Greiner Bio-One) were pre-seeded with 5 µl HepG2-A16-CD81^EGFP cells grown in DMEM (11965–092, Invitrogen) containing 10% FBS (35–011-CV, Corning) and 1× Pen Strep Glutamine (10378–016, Invitrogen). Then, 50 nl of compound in DMSO was dispensed in 12-point serial dilution dose-response format (50 µM to 2.82 × 10^−4 µM), and incubated overnight.A. stephensi mosquitoes infected with P. berghei-ANKA-GFP-Luc-SMCON (Pb-Luc)[41] sporozoites bearing the antifolate-resistance-conferring Toxoplasma gondii dihydrofolate reductase-thymidylate synthase selectable marker, pyR2. After dissection, ~1000 sporozoites in 5 µl screening media (DMEM, 11965–092, Invitrogen; 5% FBS, 35–011-CV, Corning; 5x Pen Strep Glutamine, 10378–016, Invitrogen) were added per well and incubated for 48 h (37 °C, 5% CO2). Bioluminescence was measured using an EnVision microplate reader (Perkin Elmer), following the addition of 2 µl per well of Bright-Glo™ (Promega). Compound toxicity against HepG2 cells was determined in parallel by measuring cellular ATP levels reported by luciferase activity. Methods were similar to the P. berghei liver stage assay, except for the addition of CellTiter-Glo® (Promega) as a detection reagent. DMSO (0.5%) was used as a negative control in both assays, with Atovaquone (5 µM) and Puromycin (10 µM) acting as positive controls in the P. berghei and toxicity assays, respectively.

[6] = system: P. falciparum stage V male gametocytes (male gamete formation); assay: P. falciparum dual gamete formation assay (Pf DGFA), male readout (exflagellation), 48 h carry-over format; type: cell-based, Plasmodium falciparum NF54; conditions: Plasmodium falciparum, 24h preincubation/carry-over
[7] = system: HepG2 human cells; set-up: method as in http://dx.doi.org/10.6019/CHEMBL3507680; conditions: ref http://dx.doi.org/10.6019/CHEMBL3507680; cited from earlier work
[8] = profiling / reconfirmation, read-out: Pf asexual IC50
[9] = 72h incubation, read-out: Pf Asexual IC50
[10] = dose response retest, 72 h, read-out: IC50 (µM) Asex stages
[11] = 48h incubation, read-out: Pb Liver invasion assay IC50

Row | Compound | IC50 [1, 8] | IC50 [1, 9] | IC50 ([1]; compound resynthesised at GSK, read-out: IC50 against asexuals) | IC50 [1, 10] | inhibition at 2 µM ([1]; 72 h) | IC50 [2] | IC50 [3] | IC50 [4] | IC50 [5, 11] | IC50 [6] | %Inh HepG2 @10uM [7] | activity in P. berghei ookinete development assay ([4]; profiling) | IC50 ([5]; read-out: Pb liver IC50) | activity in the add-in format ([2]; profiling)
1 | O=C(CCl)Nc1ccc(Br)cc1 [BPCA, N-(4-bromophenyl)-2-chloroacetamide] | 0.8 µM |  |  |  |  |  |  |  |  |  |  |  |  | 
2 | CC(=O)c1c(C)nn(CC(=O)Nc2ccc(Br)cc2)c1C [DDD01027599] | 0.8 µM | 0.64 µM | > 50 µM | 1.02 µM | 80.5% | > 10 µM | > 10 µM | > 12.5 µM | 7.48 µM | 4.03 µM | 4.72% |  |  | 
3 | O=S(=O)(NCC1(O)CCOc2ccccc21)c1ccccc1F (stereo not drawn) [DDD01028073] |  | > 20 µM |  |  |  | 0.34 µM | > 10 µM | 0.3 µM | > 50 µM | 0.58 µM | -4.25% |  |  | 
4 | Cc1ccc(S(=O)(=O)NCC2(O)CCOc3ccccc32)s1 (stereo not drawn) [DDD01028074] |  | > 20 µM |  |  |  | 0.61 µM | > 10 µM | 0.29 µM | > 50 µM | 0.79 µM | -4.01% |  |  | 
5 | O=S(=O)(NCC1(O)CCOc2ccccc21)c1ccc(Cl)s1 (stereo not drawn) [DDD01028075] |  | > 20 µM |  |  |  | 0.24 µM | > 10 µM | 0.34 µM | > 50 µM | 1.32 µM | -6.65% |  |  | 
6 | O=S(=O)(NCC1(O)CCOc2ccccc21)c1ccccc1Br (stereo not drawn) [DDD01028076] |  | > 20 µM |  |  |  | 0.53 µM | > 10 µM | 0.22 µM | > 50 µM | 0.48 µM | -0.163% |  |  | 
7 | COc1cccc(-n2ccc3nc(N4CCCC4)ncc3c2=O)c1 [DDD01034957] |  | 0.17 µM |  | 0.72 µM | 58.1% | > 10 µM | > 10 µM | > 12.5 µM |  | > 12.5 µM | -4.05% |  |  | 
8 | O=S(=O)(NCC1(O)CCOc2ccccc21)c1cccs1 (stereo not drawn) [DDD01035879] |  | > 20 µM |  |  |  | 0.28 µM | > 10 µM | 0.29 µM | > 50 µM | 0.89 µM | 3.15% |  |  | 
9 | O=S(=O)(NCC1(O)CCOc2ccccc21)c1ccc(Br)s1 (stereo not drawn) [DDD01035881] |  | 17.5 µM |  |  |  | 0.19 µM | > 10 µM | 0.11 µM |  | 0.26 µM | 3.29% |  |  | 
10 | Cc1cccc(NC(=O)c2cccc(OCc3nnnn3C)c2)n1 [DDD01038630] |  | 1.13 µM |  | 0.963 µM | 84.5% | > 10 µM | > 10 µM | > 12.5 µM | > 50 µM | > 12.5 µM | 18.75% |  |  | 
11 | CC(c1ccco1)N(C(=O)CNc1ccc(C#N)cc1)C1CC1 (stereo not drawn) [DDD01062645] |  | > 20 µM |  |  |  | 0.44 µM | 5.05 µM | > 12.5 µM |  | > 12.5 µM | 4.38% | inactive |  | 
12 | Cc1ccc(CN(c2cc(C)nc3nc(C(F)(F)F)nn23)C2CC2)cc1 [DDD01063654] |  | 0.33 µM |  | 0.324 µM | 73.2% | > 10 µM | > 10 µM | > 12.5 µM | 15.3 µM | > 12.5 µM | 0.83% |  |  | 
13 | Cc1cc(C)c(CNCC(O)c2ccc(F)c(F)c2)c(C)c1.Cl (stereo not drawn) [DDD01065539] |  | 0.17 µM |  | 0.396 µM | 91.4% | > 10 µM | > 10 µM | > 12.5 µM | 17.2 µM | > 12.5 µM | -11.40% |  |  | 
14 | CC(NCC1CCN(CCO)CC1)c1ccc(OC(F)(F)F)cc1 (stereo not drawn) [DDD01073716] |  | 10.8 µM |  |  |  | > 10 µM | > 10 µM | > 25 µM | 15.5 µM | 11 µM | -2.01% |  |  | 
15 | CN(Cc1cccc(F)c1)C(=O)CS(=O)(=O)Cc1c(Cl)cccc1Cl [DDD01077188] |  | 0.63 µM |  | 0.764 µM | 74.2% | > 10 µM | > 10 µM | > 12.5 µM | 23.1 µM | > 12.5 µM | 5.76% |  |  | 
16 | CN1CCC(NCC(O)c2cccc(OCc3ccccc3)c2)CC1 (stereo not drawn) [DDD01079164] |  | 7.53 µM |  |  |  | > 10 µM | > 10 µM | > 25 µM | 16.5 µM | 6.04 µM | 4.18% |  |  | 
17 | CNc1cc(C)nc(NC2CCCN(C3Cc4ccccc4C3)C2)n1 (stereo not drawn) [DDD01243506] | 0.66 µM |  |  | 1.07 µM | 97.1% | > 10 µM | > 10 µM | > 12.5 µM |  | > 12.5 µM | 28.56% |  | 0.52 µM | 
18 | OC1(CN2CCC(Oc3cccc(C(F)(F)F)c3)CC2)CCNC1 (stereo not drawn) [DDD01245291] |  | 6.66 µM |  |  |  | > 10 µM | > 10 µM | > 25 µM | 6.06 µM | 5.99 µM | -7.31% |  |  | 
19 | CC(c1cccs1)N(C)Cc1cnc(-c2ccccn2)nc1 (stereo not drawn) [DDD01246628] |  | 4.75 µM |  |  |  | > 10 µM | > 10 µM | > 25 µM | 13.3 µM | > 25 µM | 3.52% |  |  | 
20 | CC(C)CN1CCn2nc(CNc3ncnc4[nH]ccc34)cc2C1 [DDD01249504] |  | > 20 µM |  |  |  | > 10 µM | > 10 µM | > 25 µM | > 50 µM | 1.83 µM | 7.26% |  |  | 
21 | CCCn1nccc1C(=O)N1CCN(C2CCc3ccccc3C2)CC1 (stereo not drawn) [DDD01251134] |  | 1.01 µM |  | 0.969 µM | 58.4% | > 10 µM | > 10 µM | > 12.5 µM | 20.7 µM | > 12.5 µM | -7.89% |  |  | 
22 | Cc1nn(C)c(Oc2ccc(Cl)cc2)c1CN1CCC(CN)C1 (stereo not drawn) [DDD01254274] |  | > 20 µM |  |  |  | > 10 µM | > 10 µM | > 25 µM | > 50 µM | > 25 µM | -8.55% |  |  | 
23 | CCc1ccc(C2c3nc[nH]c3CCN2Cc2nccn2CC)nc1 (stereo not drawn) [DDD01254473] |  | > 20 µM |  |  |  | > 10 µM | > 10 µM | > 12.5 µM | > 50 µM | > 25 µM | 33.1% |  |  | 
24 | CCOc1ccc2ccccc2c1CNCC1CCNCC1.Cl.Cl [DDD01255740] |  | 3.56 µM |  |  |  | > 10 µM | > 10 µM | > 12.5 µM | 13.2 µM | 4.1 µM | 9.2% |  |  | 
25 | Cc1ccc(-c2cc(C(=O)NCCC3=CCCCC3)[nH]n2)o1 [DDD01255968] |  | > 20 µM |  |  |  | 0.32 µM | > 10 µM | > 12.5 µM | 17.6 µM | 1.17 µM | -10.6% |  |  | active
